# Source: ChEMBL document CHEMBL3352745, “Serotonin 5-HT6 receptor antagonists for the treatment of cognitive deficiency in Alzheimer's disease” (J Med Chem, 2014)
# Biological target: T1, 5-hydroxytryptamine receptor 6 (Homo sapiens, UniProt P50406)
# Experiment: Antagonist activity at human recombinant 5HT6 receptor expressed in CHO cells
# Assay type: cell-based
# Details: not given
# T1 sequence (P50406 whole entry): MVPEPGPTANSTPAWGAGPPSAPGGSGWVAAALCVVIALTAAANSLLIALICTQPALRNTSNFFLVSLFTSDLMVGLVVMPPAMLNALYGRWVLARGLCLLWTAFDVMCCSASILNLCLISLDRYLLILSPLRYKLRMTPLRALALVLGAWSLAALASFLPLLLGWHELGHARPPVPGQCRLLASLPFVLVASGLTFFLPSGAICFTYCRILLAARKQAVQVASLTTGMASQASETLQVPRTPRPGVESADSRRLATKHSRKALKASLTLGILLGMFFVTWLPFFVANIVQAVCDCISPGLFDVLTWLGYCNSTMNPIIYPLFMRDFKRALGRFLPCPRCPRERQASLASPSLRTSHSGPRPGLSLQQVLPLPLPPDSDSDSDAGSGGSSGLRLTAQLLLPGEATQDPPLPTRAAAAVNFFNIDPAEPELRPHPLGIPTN
row,SMILES,Ki
1,CN1CC=C(c2cn(S(=O)(=O)c3cccc4ccccc34)c3ccc(F)cc23)CC1,1 nM
2,O=C1c2cccc(N3CCNCC3)c2Oc2ccc(F)cc2N1Cc1cccc(C(F)(F)F)c1,0.3 nM
3,CN1CC2c3ccccc3Oc3ccc(Cl)cc3C2C1 (stereo unspecified) [ASENAPINE],0.25 nM
4,O=c1[nH]c2c(N3CCNCC3)cccc2n1Cc1ccccc1,0.3 nM
5,O=S(=O)(c1cccc(Cl)c1Cl)N1CCc2c(cccc2N2CCNCC2)C1,0.04 nM
6,COc1ccc(NS(=O)(=O)c2ccc(I)cc2)cc1N1CCNCC1,2.3 nM
7,CN1CCCC1Cc1c[nH]c2ccc(OC3CCCCC3)cc12 (stereo unspecified),0.93 nM
8,CN1CCC(c2cn(C)c3cc(OS(=O)(=O)c4c(F)cccc4F)ccc23)CC1,1 nM
9,Cc1cc(C)cc(S(=O)(=O)c2ccc3ccnc(N4CCNCC4)c3c2)c1,11 nM
10,COc1cc(N2CCNCC2)c2ncc(C)c(Oc3ccccc3)c2c1,1 nM
11,O=C(Nc1ccccc1)n1cc(C2=CCNCC2)c2cc(F)ccc21,118 nM
12,Fc1ccc2c(c1)c(C1=CCNCC1)cn2Cc1ccccc1,10 nM
13,COc1ccc(C)cc1S(=O)(=O)Nc1cc(OC2CCNCC2)c2occc2c1,1.2 nM
14,COc1cc(Cn2c(=O)ccc3cccc(OC)c32)cc(N2CCNCC2)c1,0.9 nM
15,CN1CCN(c2cccc3c(S(=O)(=O)c4ccccc4)c[nH]c23)CC1,0.5 nM
16,O=S(=O)(c1cccc(F)c1)c1c[nH]c2c(OCCN3CCCC3)cccc12,20 nM
17,O=S(=O)(Nc1ccc2c(c1)CNCCC2)c1csc(C(F)(F)F)c1-c1ccccc1,32 nM
18,O=c1n(C2=CCNCC2)c2ccccc2n1S(=O)(=O)c1ccc2ccccc2c1,5.7 nM
19,O=S(=O)(c1cccc(Cl)c1)n1ccc2c(N3CCNCC3)c(Cl)ccc21,0.3 nM
20,N=C(N)CCC1CCCc2cc(S(=O)(=O)c3ccccc3)ccc21 (stereo unspecified),59 nM
21,COc1ccc(Cl)cc1NS(=O)(=O)c1ccc(OC)c2c1CC[C@H](N(C)C)C2,1.7 nM
22,O=C(c1ccccc1)n1cc(C2=CCNCC2)c2cc(F)ccc21,99 nM
23,CNC[C@@H]1COc2ccc(S(=O)(=O)c3ccccc3)cc2O1,0.2 nM
24,O=S(=O)(c1ccccc1)c1ccc(C2CCNCC2)c2ccccc12,3.8 nM
25,CSc1nn2c(N3CCNCC3)nc(C)nc2c1S(=O)(=O)c1ccccc1,1.2 nM
26,Clc1ccc(-c2[nH]c3ccccc3c2/C=N/NC2=NCCN2)cc1,10 nM
27,Cc1c(S(=O)(=O)Nc2cc3c(c(N4CCN(C)CC4)c2)OCC3)sc2ccc(Cl)cc12,1.6 nM
28,CC(Nc1ccc2c(c1)CCNCC2)c1ccccc1Cl (stereo unspecified),14 nM
29,O=S(=O)(c1ccccc1)c1ccc2c(c1)OCCC2N1CCNCC1 (stereo unspecified),0.4 nM
30,O=C1COc2c(N3CCNCC3)cccc2N1Cc1ccccc1,0.2 nM

# Biological target: T1, 5-hydroxytryptamine receptor 6
# Experiment: Inhibition of human recombinant 5HT6 receptor expressed in CHO cells
# Assay type: cell-based
# Details: not given
row,SMILES,IC50
1,CN1CC=C(c2cn(S(=O)(=O)c3cccc4ccccc34)c3ccc(F)cc23)CC1,24 nM
2,COc1ccc(NS(=O)(=O)c2ccc(Br)cc2)cc1N1CCN(C)CC1,16 nM
3,CN1CCC[C@@H]1Cc1cn(S(=O)(=O)c2ccccc2)c2ccc(Cl)cc12,8.5 nM
4,Nc1ccc(S(=O)(=O)c2cc(Br)nc(N3CCCC3)c2)cc1,3.2 nM

# Tested on: not listed separately
# Experiment: Half life in rat
# Assay type: ADME, organism-based
# Details: in vivo
row,SMILES,half-life
1,COc1ccc(NS(=O)(=O)c2sc3ccc(Cl)cc3c2C)cc1N1CCNCC1,4.8 h

# Tested on: not listed separately
# Experiment: Oral bioavailability in rat
# Assay type: ADME, organism-based
# Details: in vivo
row,SMILES,bioavailability
1,CN1CC=C(c2cn(S(=O)(=O)c3cccc4ccccc34)c3ccc(F)cc23)CC1,19%
2,O=S(=O)(c1ccccc1)c1cnc2c(N3CCNCC3)cccc2c1 [INTEPIRDINE],76%
3,CN1CCC[C@@H]1Cc1cn(S(=O)(=O)c2ccccc2)c2ccc(Cl)cc12,17%
4,COc1ccc(NS(=O)(=O)c2sc3ccc(Cl)cc3c2C)cc1N1CCNCC1,> 80%

# Tested on: not listed separately
# Experiment: Ratio of drug level in brain to plasma in rat
# Assay type: ADME
# Details: brain and plasma, read-out: BPR
row,SMILES,Kp
1,CN1CC=C(c2cn(S(=O)(=O)c3cccc4ccccc34)c3ccc(F)cc23)CC1,43
2,CN1CCC[C@@H]1Cc1cn(S(=O)(=O)c2ccccc2)c2ccc(Cl)cc12,23
